One series deals with thrombin. Put plainly: Prevention of heparin inhibition of thrombin, conditions similar to the Factor Xa experiments. The series is classed as biochemical. To be noted: for ability to prevent heparin inhibition of thrombin: in vitro; for prevention of heparin inhibition of thrombin: 1 μM. An excerpt:
(§1) The lysine rich region of PF4 (residues 61-66) is also the domain associated with the binding of heparin by PF4. Heparin is known to play a role in modulating anglogenesis, which can also be affected by protamine, another well characterized heparin-binding protein. To assess the ability of PF4-based synthetic peptides to bind heparin, we assayed the activity of coagulation-cascade enzymes which are inhibited by heparin. The Factor Xa assay used here has previously been described in Denton et al., Biochem. J., 209:455-460 (1983).
In experiments carried out under conditions similar to the Factor Xa experiments, thrombin was inhibited 99% by 0.25 units of heparin.

The subject of a further series is Factor Xa. Put plainly: Factor Xa assay: prevention of heparin inhibition of Factor Xa. The series is classed as biochemical. To be noted: for ability to prevent heparin inhibition of Factor Xa: in vitro; for restoration of Factor Xa activity: low concentrations.
From the text: as §1
PF4 isolated from platelets and recombinant E. coli cells were compared for their abilities to prevent heparin inhibition of Factor Xa (essential for the production of thrombin) in vitro.
The abilities of protamine and rPF4 to prevent heparin-inhibition of the coagulation enzyme Factor Xa were compared. The details of the assay are described by Denton et al, 1983, Biochem. J. 209:455. In the Factor Xa assay, 0.5 units of heparin inhibited enzymatic activity almost 90%.
Similar studies and results may be obtained using certain fragments of PF4 or rPF4 that include the heparin binding region, residues 61-66.

The subject of a further series is normal human plasma. As to the kind of experiment: Neutralization of heparin in human plasma (APTT). To be noted: 1 unit/ml of heparin; for restoring the APTT to its heparin-free level: added during the incubation before activated thromboplastin. An excerpt:
Neutralization of heparin in human plasma was also examined. The activated partial thromboplastin time (APTT) of normal human plasma was increased from its base level of approximately 30 seconds to 195 seconds by the addition of 1 unit/ml of heparin.

Series [1] deals with Sprague Dawley rats. Put plainly: In vivo heparin neutralization in rats (APTT). Further details: species or system rat. To be noted: for APTT after neutralizing agent: heparin 1 unit/g at t=0, agent at t=2 min, protamine sulfate 1 ug/g, PF4 7.5 ug/g, read at t=10 min. The procedure:
(§2) In Vivo experiments were performed on rats to compare the heparin neutralizing activity of protamine and PF4 and to investigate the effect of PF4 on platelet and white blood cell count.
(§3) Sprague Dawley rats (225 g) were anesthetized with pentobarbital, the trachea was intubated, and the right femoral vein and carotid artery were cannulated. The intravenous infusion of heparin was followed by infusion of either protamine or rPF4. Arterial blood samples were taken prior to and immediately after heparin infusion and at several time points following the infusion of the neutralizing agent. Controls were conducted with Ringer's solution in place of heparin and the experimental agents. Samples were used for the following determinations: clotting time, platelet count, and white blood cell count.
(§4) Referring to FIGS. 1 and 2, data are shown from a typical experiment comparing the platelet count, white blood cell count and the APTT in rats when injected with heparin followed by protamine sulfate (FIG. 1) and when injected with heparin followed by rPF4 (FIG. 2). In these Figs., heparin was injected at t=0 and either protamine sulfate or rPF4 injected two minutes thereafter (t=2 minutes). The dosages used were: heparin 1 unit/g animal wt.; protamine sulfate 1 ug/g animal wt.; and PF4 7.5 ug/g animal wt.
Referring now to FIGS. 3 to 5, statistical bar graph data are shown comparing APTT, platelet count, (PC) and white blood cell (WBC) count in rats injected with a control solution, Ringers solution (FIG. 3), injected with heparin followed by protamine sulfate (FIG. 4) and injected with heparin followed by rPF4 (FIG. 5). […]
Samples A were taken before injection; samples B, 2 min after heparin injection; samples C, 10 min after heparin and 8 min after protamine sulfate injection; and samples D, 18 min after heparin injection. Data represent mean values and S.E.M. from experiments except that white blood cells and platelets were counted only in 3 samples taken at 2 and at 18 min after heparin injection. […]

Series [2] deals with Sprague Dawley rats. Put plainly: In vivo effect on platelet count, white blood cell count and hematocrit in heparinized rats. The arrangement: species or system rat. To be noted: for platelet count, % of initial: after heparin followed by neutralizing agent, FIGS. 4 and 5; for hematocrit levels: conditions as for FIGS. 1 and 2; for change of platelet and white blood cell counts: heparin 100 units/100 g followed by protamine sulfate 100 μg/100 g or rPF4 7.5 μg/g; for white blood cell count / platelet count: t=10 minutes, 8 min after agent, protamine sulfate 1 ug/g, PF4 7.5 ug/g; for white blood cell count: protamine sulfate group over 5 at t=0; for platelet count: t=0: protamine sulfate over 800, rPF4 700. The procedure:
as §2, §3, §4
Experiments were also conducted to investigate hematocrit levels under conditions as described with respect to FIGS. 1 and 2. No change in hematocrit levels were observed when either PF4 or protamine were used for heparin neutralization.
Referring now to FIGS. 3 to 5, statistical bar graph data are shown comparing APTT, platelet count, (PC) and white blood cell (WBC) count in rats injected with a control solution, Ringers solution (FIG. 3), injected with heparin followed by protamine sulfate (FIG. 4) and injected with heparin followed by rPF4 (FIG. 5). The data included control rats, five rats injected with heparin followed by protamine sulfate and two rats injected with heparin followed by rPF4.
Samples A were taken before injection; samples B, 2 min after heparin injection; samples C, 10 min after heparin and 8 min after protamine sulfate injection; and samples D, 18 min after heparin injection. Data represent mean values and S.E.M. from experiments except that white blood cells and platelets were counted only in 3 samples taken at 2 and at 18 min after heparin injection. […] The decrease was statistically significant (p<0.01) as compared to samples obtained before heparin injection.
Data represent mean values and S.E.M. from 2 experiments for samples taken at times A-D as indicated in the discussion above with respect to FIG. 4.

In series [3] the test system is Sprague Dawley rats. Described as above. The arrangement: species or system rat. To be noted: low doses of rPF4 (150 μg/100g); three experiments.

Entries after “also recorded” stand apart in the source; their conditions may differ.

This is an account of results in patent US5482923A, “Heparin neutralization with platelet factor 4 fragments” (Repligen Corporation, priority 1993, dated 1996).

As for “C-13: C-13 peptide of PF4, a PF4-based synthetic peptide (PLYKKIIKKLLES; UniProt P02776 89-101, looked up, fragment)”, the “ability to prevent heparin inhibition of thrombin” value in the series with thrombin is given as “unable to prevent the inhibition of thrombin even at concentrations ten times that of an effective level of rPF4”.
Consider “C-41: The 41 amino acid C-terminal peptide of PF4 (IKAGPHCPTAQLIATLKNGRKICLDLQAPLYKKIIKKLLES; UniProt P02776 61-101, looked up, fragment)”, for which the “ability to prevent heparin inhibition of thrombin” value with thrombin is given as “prevented heparin inhibition less effectively”. The “ability to prevent heparin inhibition of Factor Xa” value in the series on Factor Xa is on record as “prevented heparin inhibition less effectively; also recorded: demonstrated the ability to neutralize heparin in vitro”.
In the series with thrombin (0.25 units of heparin), heparin [reference compound] yielded an inhibition of thrombin of 99%. Besides, in the series with Factor Xa (0.5 units of heparin), the “inhibition of Factor Xa enzymatic activity” value was about 90%. Also, the “activated partial thromboplastin time (APTT)” value in the series on normal human plasma (base level approximately 30 seconds) turned out to be 195 s.
protamine: the “APTT after neutralizing agent” value with Sprague Dawley rats [1] was “decrease in the APTT to approximately normal levels after about 10 minutes”. In the series with Sprague Dawley rats [2], the “platelet count, % of initial” value stood at 48±12.2%; the hematocrit levels result was “No change”; the “change of platelet and white blood cell counts” value was “significant decrease of white blood cell count and platelet count; also recorded: drop in platelet and white blood cell counts”; the “white blood cell count” value is “less than 3 ×10^3 /μl”. Further, the platelet count result with Sprague Dawley rats [2] is reported as “less than 500 ×10^3 /μl”. Moreover, the WBC count entry in the series with Sprague Dawley rats [2] (after heparin followed by protamine sulfate, FIG. 4) is reported as “decreased”. Further, the respiratory problems entry with Sprague Dawley rats [2] (heparin 1 unit/g followed by protamine sulfate 1 ug/g) is reported as “These rats also had respiratory problems”. Besides, in the series with thrombin (0.25 units of heparin), the “prevention of heparin inhibition of thrombin” value is “completely prevented heparin inhibition” and the “molar dose responses, rPF4 compared with protamine” value was “no significant difference in their molar dose responses”. Besides, the “ability to prevent heparin inhibition of thrombin” value with thrombin was “able to prevent the heparin inhibition of thrombin and Factor Xa at approximately equimolar concentrations”. The “ability to prevent heparin inhibition of Factor Xa” value in the series with Factor Xa is “able to prevent the heparin inhibition of thrombin and Factor Xa at approximately equimolar concentrations”. The “restoration of Factor Xa activity” value with Factor Xa (0.5 units of heparin) is on record as “partially restored Factor Xa activity”. Moreover, the “restoring the APTT to its heparin-free level” value with normal human plasma was “equally effective in restoring the APTT to its heparin-free level”.
On to “rPF4: Recombinant native sequence human platelet factor 4, 70 residues, produced in E. coli as a fusion protein and cleaved with CNBr”, for which the “APTT after neutralizing agent” value in the series on Sprague Dawley rats [1] is “restoration of normal APTT levels”. Further, in the series on Sprague Dawley rats [1] (low doses of rPF4 (150 μg/100g), three experiments), the “neutralization of the anticoagulant effect of heparin” value is listed as “partially neutralized”. In addition, in the series with Sprague Dawley rats [2], the “platelet count, % of initial” value is reported as 89±4.9%; the hematocrit levels entry is reported as “No change”; the “change of platelet and white blood cell counts” value is “did not lead to the extensive depletion of platelet and white blood cells; also recorded: did not produce a statistical decrease in platelet and white blood count”; the “white blood cell count” value is “about 4 ×10^3 /μl”. Also, in the series on Sprague Dawley rats [2], the platelet count result was “about 500 ×10^3 /μl”. In the series with thrombin (0.25 units of heparin), the “prevention of heparin inhibition of thrombin” value is recorded as “completely prevented heparin inhibition” and the “molar dose responses, rPF4 compared with protamine” value is “no significant difference in their molar dose responses”. For the same substance, the “ability to prevent heparin inhibition of thrombin” value with thrombin is “able to prevent the heparin inhibition of thrombin and Factor Xa at approximately equimolar concentrations”. Further, the “effect on platelets and white blood cells” value in the series with Sprague Dawley rats [3] is “no effect on platelets and white blood cells”. In the series with Factor Xa (concentrations greater than 1 μM, 0.5 units of heparin), the “preventing Factor Xa inhibition, compared with protamine” value is reported as “clearly more effective in preventing Factor Xa inhibition”. In addition, the “ability to prevent heparin inhibition of Factor Xa” value in the series with Factor Xa is “able to prevent the heparin inhibition of thrombin and Factor Xa at approximately equimolar concentrations”. The “restoration of Factor Xa activity” value with Factor Xa (0.5 units of heparin) is on record as “partially restored Factor Xa activity”. The “restoring the APTT to its heparin-free level” value in the series with normal human plasma is listed as “equally effective in restoring the APTT to its heparin-free level”.
